The source of these data is PubChem BioAssay AID1259407 (Chemical Carcinogenesis Research Information System (CCRIS), 2018).

The source made the active and inactive calls. How the calls were made is not given here.

For this series, the system named is CCRIS mutagenicity, Ames/micronucleus/aberration tests. Nature of the series: CCRIS mutagenicity studies. The following applies: Test System: AMES SALMONELLA TYPHIMURIUM
Where [1] appears, read: Strain/Indicator: TA98, Metabolic Activation: HAMSTER, LIVER, S-9, AROCLOR 1254 (10%), Method: PREINCUBATION
The mark [2] stands for this setting: Strain/Indicator: TA98, Metabolic Activation: NONE, Method: PREINCUBATION
[3] abbreviates: Strain/Indicator: TA98, Metabolic Activation: RAT, LIVER, S-9, AROCLOR 1254 (10%), Method: PREINCUBATION
Setting [4] is: Strain/Indicator: TA100, Metabolic Activation: HAMSTER, LIVER, S-9, AROCLOR 1254 (10%), Method: PREINCUBATION
Where [5] appears, read: Strain/Indicator: TA100, Metabolic Activation: NONE, Method: PREINCUBATION
Setting [6] is: Strain/Indicator: TA100, Metabolic Activation: RAT, LIVER, S-9, AROCLOR 1254 (10%), Method: PREINCUBATION
Where [7] appears, read: Strain/Indicator: TA1535, Metabolic Activation: HAMSTER, LIVER, S-9, AROCLOR 1254 (10%), Method: PREINCUBATION
[8] abbreviates: Strain/Indicator: TA1535, Metabolic Activation: NONE, Method: PREINCUBATION
Where [9] appears, read: Strain/Indicator: TA1535, Metabolic Activation: RAT, LIVER, S-9, AROCLOR 1254 (10%), Method: PREINCUBATION
Where [10] appears, read: Strain/Indicator: TA1537, Metabolic Activation: HAMSTER, LIVER, S-9, AROCLOR 1254 (10%), Method: PREINCUBATION
The mark [11] stands for this setting: Strain/Indicator: TA1537, Metabolic Activation: NONE, Method: PREINCUBATION
The mark [12] stands for this setting: Strain/Indicator: TA1537, Metabolic Activation: RAT, LIVER, S-9, AROCLOR 1254 (10%), Method: PREINCUBATION
[13] abbreviates: Strain/Indicator: TA100, Metabolic Activation: NONE, Method: STANDARD PLATE.
The mark [14] stands for this setting: Strain/Indicator: TA98, Metabolic Activation: NONE, Method: STANDARD PLATE.
[15] abbreviates: Strain/Indicator: TA1535, Metabolic Activation: NONE, Method: STANDARD PLATE.

For `CCCCCCCC(=O)O`, the mutagenic call runs as follows: (Strain/Indicator: TA97, Metabolic Activation: HAMSTER, LIVER, S-9, AROCLOR 1254 (10%), Method: PREINCUBATION) “inactive; negative”; (Strain/Indicator: TA97, Metabolic Activation: HAMSTER, LIVER, S-9, AROCLOR 1254 (30%), Method: PREINCUBATION) “inactive; negative”; (Strain/Indicator: TA97, Metabolic Activation: NONE, Method: PREINCUBATION) “inactive; negative”; (Strain/Indicator: TA97, Metabolic Activation: RAT, LIVER, S-9, AROCLOR 1254 (10%), Method: PREINCUBATION) “inactive; negative”; (Strain/Indicator: TA97, Metabolic Activation: RAT, LIVER, S-9, AROCLOR 1254 (30%), Method: PREINCUBATION) “inactive; negative”; under setting [1], “inactive; negative”. Also, the mutagenic call (Strain/Indicator: TA98, Metabolic Activation: HAMSTER, LIVER, S-9, AROCLOR 1254 (30%), Method: PREINCUBATION) was “inactive; negative”; the mutagenic call under setting [2] is “inactive; negative”; the mutagenic call under setting [3] was “inactive; negative”; the mutagenic call (Strain/Indicator: TA98, Metabolic Activation: RAT, LIVER, S-9, AROCLOR 1254 (30%), Method: PREINCUBATION) is “inactive; negative”; the mutagenic call under setting [4] was “inactive; negative”; the mutagenic call (Strain/Indicator: TA100, Metabolic Activation: HAMSTER, LIVER, S-9, AROCLOR 1254 (30%), Method: PREINCUBATION) was “inactive; negative”. The mutagenic call reads like this: under setting [5], “inactive; negative”; under setting [6], “inactive; negative”; (Strain/Indicator: TA100, Metabolic Activation: RAT, LIVER, S-9, AROCLOR 1254 (30%), Method: PREINCUBATION) “inactive; negative”; under setting [7], “inactive; negative”; (Strain/Indicator: TA1535, Metabolic Activation: HAMSTER, LIVER, S-9, AROCLOR 1254 (30%), Method: PREINCUBATION) “inactive; negative”; under setting [8], “inactive; negative”. Also, the mutagenic call is “inactive; negative” under setting [9]; “inactive; negative” (Strain/Indicator: TA1535, Metabolic Activation: RAT, LIVER, S-9, AROCLOR 1254 (30%), Method: PREINCUBATION); “inactive; negative” under setting [10]; “inactive; negative” (Strain/Indicator: TA1537, Metabolic Activation: HAMSTER, LIVER, S-9, AROCLOR 1254 (30%), Method: PREINCUBATION); “inactive; negative” under setting [11]; “inactive; negative” under setting [12]. Besides, the mutagenic call (Strain/Indicator: TA1537, Metabolic Activation: RAT, LIVER, S-9, AROCLOR 1254 (30%), Method: PREINCUBATION) is “inactive; negative”.

As for `CC(=O)C(=O)c1ccccc1`, under setting [13], the mutagenic call is “inactive; negative”.

For the molecule `c1ccc2cnccc2c1`, the mutagenic call runs as follows: under setting [2], “inactive; negative”; (Strain/Indicator: TA98, Metabolic Activation: RAT, LIVER, S-9, Method: PREINCUBATION) “inactive; negative”; under setting [5], “inactive; negative”; (Strain/Indicator: TA100, Metabolic Activation: RAT, LIVER, S-9, Method: PREINCUBATION) “inactive; negative”.

`CCOC(=O)C(SP(=S)(OC)OC)c1ccccc1` (stereo unspecified): the mutagenic call under setting [14] was “inactive; negative”; the mutagenic call (Strain/Indicator: TA98, Metabolic Activation: S-9, NADPH GENERATING SYSTEM, Method: STANDARD PLATE) was “inactive; negative”; the mutagenic call (Strain/Indicator: TA102, Metabolic Activation: NONE, Method: STANDARD PLATE) was “inactive; negative”; the mutagenic call (Strain/Indicator: TA102, Metabolic Activation: S-9, NADPH GENERATING SYSTEM, Method: STANDARD PLATE) is “inactive; negative”; the mutagenic call under setting [15] is “inactive; negative”; the mutagenic call (Strain/Indicator: TA1535, Metabolic Activation: S-9, NADPH GENERATING SYSTEM, Method: STANDARD PLATE) is “inactive; negative”. For the same molecule, the mutagenic call (Strain/Indicator: TA1537, Metabolic Activation: NONE, Method: STANDARD PLATE) was “inactive; negative” and the mutagenic call (Strain/Indicator: TA1537, Metabolic Activation: S-9, NADPH GENERATING SYSTEM, Method: STANDARD PLATE) was “inactive; negative”.

Take `N#Cc1cccc(/C=C/c2ccc(N)cc2)c1`: the mutagenic call by setting is: (Strain/Indicator: TA98(1,8-DNP6), Metabolic Activation: NONE, Method: STANDARD PLATE) “inactive; negative”; (Strain/Indicator: TA98(1,8-DNP6), Metabolic Activation: S-9, Method: STANDARD PLATE) “active; positive”; under setting [14], “active; positive”; (Strain/Indicator: TA98, Metabolic Activation: S-9, Method: STANDARD PLATE) “active; positive”; under setting [13], “inactive; negative”; (Strain/Indicator: TA100, Metabolic Activation: S-9, Method: STANDARD PLATE) “active; positive”.

As to `c1ccc(CCC2CO2)cc1` (stereo unspecified), the mutagenic call under setting [5] was “active; positive”, the mutagenic call under setting [13] is “active; positive”, the mutagenic call under setting [8] is “active; positive” and the mutagenic call under setting [15] was “active; positive”.

Regarding `Nc1ccc(/C=C/c2ccc(N)c(S(=O)(=O)O)c2)c(S(=O)(=O)O)c1`, the mutagenic call reads like this: under setting [1], “inactive; negative”; under setting [2], “inactive; negative”; under setting [3], “inactive; negative”; under setting [4], “inactive; negative”; under setting [5], “inactive; negative”; under setting [6], “inactive; negative”. The mutagenic call under setting [7] is “inactive; negative”; the mutagenic call under setting [8] was “inactive; negative”; the mutagenic call under setting [9] was “inactive; negative”; the mutagenic call under setting [10] is “inactive; negative”; the mutagenic call under setting [11] was “inactive; negative”; the mutagenic call under setting [12] was “inactive; negative”.

As to `COc1ccc2c(c1)-c1nccc3cc(OC)c(OC)c(c13)C2=O`, the mutagenic call (Strain/Indicator: TA98, Metabolic Activation: RAT, LIVER, S-9, PHENOBARBITAL AND BETA-NAPHTHOFLAVONE, Method: PREINCUBATION) is “active; positive”.
